In patent publication US12611438B2, “Antiviral composition comprising a nucleolin-binding peptide” (ANYGEN CO., LTD., priority 2021, dated 2026):

Columns and labels:
[1] = tested on: SARS-COV-2; assay: microbe, parasite or virus in culture; settings: Severe acute respiratory syndrome coronavirus 2, Vero C1008, 24 h
[2] = in vitro; settings: African green monkey
[3] = tested on: MDA-MB-231; assay: OBOC bead whole-cell binding assay; settings: peptide on OBOC beads, cells at 10^6 cells/ml
Description: (§1) Before screening, beads were extensively washed with double distilled water and phosphate buffered saline (PBS; Welgene Inc., Republic of Korea). Cancer cells and normal cells were separated from the culture dish using trypsin/EDTA (Gibco) and washed with the corresponding culture medium. The cells were resuspended at 10^6 cells/ml and cultured while shaking (60 rpm) in a 37° C. humidified CO2 incubator with OBOC beads in a Petri dish. Beads bound by cells observed with the microscope had the shape of rosettes having central beads covered with one or more cell layers. Under an inverted microscope, positive beads were picked out with a pipette, and treated with guanidine-HCL (8M, 20 minutes) to remove cells and proteins from the bead surface, and secondary screening was performed with normal breast epithelial cells to detect false positive binding. Peptide sequencing was performed by selecting only beads having cell binding in both rounds.
(§2) Libraries of peptides listed in beads (50,000 to 100,000 beads were used at one time) was mixed with a human breast cancer cell line (MDA-MB-231). […] Then, these three peptides were labeled with fluorescein isothiocyanate (FITC) and the ability thereof to bind to MDA-MB-231 cells was determined.

[4] = tested on: MCF-10A, CCD-18Co; assay: Bead whole-cell binding assay, normal cell lines; settings: cell growth bead analysis
Description: as §1, §2

| Molecule | IC50 [1] | CC50 at 24 h [2] | CC50 [2] | binding to breast cancer cell line MDA-MB-231 [3] | binding to normal cell lines MCF-10A and CCD-18Co [4] |
| --- | --- | --- | --- | --- | --- |
| Cc1cccc(C)c1OCC(=O)N[C@@H](Cc1ccccc1)[C@@H](O)C[C@H](Cc1ccccc1)NC(=O)[C@H](C(C)C)N1CCCNC1=O [Lopinavir, lopinavir] | 15.5 µM | > 50 µM | – | – | – |
| CCC(CC)COC(=O)[C@H](C)N[P@](=O)(OC[C@H]1O[C@@](C#N)(c2ccc3c(N)ncnn23)[C@H](O)[C@@H]1O)Oc1ccccc1 [Remdesivir, remdesivir] | 10.9 µM | – | > 50 µM | – | – |
| AVARARRRR (Synthetic construct AGM-332) | – | – | – | strong, specific, and preferential binding | relatively non-specific and bound |
